According to US12564582B2 (Prilenia Neurotherapeutics Ltd., priority 2016, dated 2026):
Read-outs that look alike come from different tables or passages of the source.

Key:
[1] = test system: rat striatum; conditions: transcriptomic analysis (Geva 2016); cited from earlier work
[2] = test system: patients with Huntington's disease; conditions: 45 mg bid;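 as to Δ to placebo, change from baseline in UHDRS TMS Finger Taps: finger tapping item rates tapping with fingers of both hands, normal being 15 taps within 5 s, the combined score adds forearm pronation and supination on each side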
[3] = test system: patients with Huntington's disease; conditions: Week 26; for Δ to placebo, change from baseline in UHDRS TMS Chorea: ALL; for Wk 26 Δ to placebo, change from baseline in UHDRS TMS Chorea: Stage 1 BL TFC 11-13;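 as to Δ to placebo, change from baseline in UHDRS TMS Finger Taps: finger tapping item rates tapping with fingers of both hands, normal being 15 taps within 5 s, the combined score adds forearm pronation and supination on each side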
Excerpt: In the UHDRS, maximal chorea was scored from 0 (absent) to 4 (marked/prolonged) on each of the following items: face, mouth, trunk, right upper extremity, left upper extremity, right lower extremity, and left lower extremity. Maximal chorea is the sum of all scores.

[4] = test system: patients with Huntington's disease;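 as to Δ to placebo, change from baseline in UHDRS TMS Finger Taps: finger tapping item rates tapping with fingers of both hands, normal being 15 taps within 5 s, the combined score adds forearm pronation and supination on each side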
Excerpt: Finger Taps and Pronate-Supinate (P/S) hands is a combination of finger tapping (the ability to tap the fingers of both hands where 15 repetitions in 5 seconds is considered normal) with pronation/supination (the ability to rotate the forearm and hand such that the palm is down (pronation) and to rotate the forearm and hand such that the palm is up (supination) on both sides of the body).
The hand movement score is defined as the sum of UHDRS domains finger taps, pronate-supinate hands and luria (fist-hand-palm test).
An assessment of the ability to rotate the forearm and hand such that the palm is down (pronation) and to rotate the forearm and hand such that the palm is up (supination) on both sides of the body.

[5] = test system: patients with Huntington's disease; conditions: Week 52;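 as to Δ to placebo, change from baseline in UHDRS TMS Finger Taps: finger tapping item rates tapping with fingers of both hands, normal being 15 taps within 5 s, the combined score adds forearm pronation and supination on each side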
Excerpt: Motor deficits can be objectively assessed using different Q-Motor assessments. All Q-Motor assessments are based on the application of precalibrated and temperature controlled force transducers and 3-dimensional position sensors with very high sensitivity and test-retest reliability across sessions and sites in a multicenter clinical study. Q-Motor measures thus aim to reduce the limited sensitivity of categorical clinical rating scales, the intra- and inter-rater variability, and placebo effects observed in scales such as UHDRS-TMS. In addition, Q-Motor assessments allow for the objective monitoring of unintended motor side-effects in clinical studies. Thus, Q-Motor is an objective, reliable, and sensitive measure of motor function that is free of rater bias and limits placebo effect influence.
This task assessed the regularity of hand taps performed when alternating between the palm and dorsal surface of the hand performing a repetitive pronation/supination movement. The force and duration of the hand taps are recorded similarly to the speeded tapping task. A tone cues the start and end of an assessment. Five trials of 10 seconds duration are performed with each hand.

[6] = test system: patients with Huntington's disease; remark: listed apart in the source
Experimental: The study also compared data from all patients to those obtained in HD subpopulations.
The primary efficacy variable and endpoint for this study was change from baseline in the UHDRS TMS (defined as the sum of all UHDRS motor domains ratings) at Week 26 or Week 52. The primary measure of motor impairment is the UHDRS motor assessment section, which was administered by a trained examiner. The first part of the motor assessment consisted of five TMS subscores, provided below. The sum total of all the 31 items is referred to as the Total Motor Score (TMS). The secondary efficacy variable and endpoint was change from baseline in the mPPT at Week 26 or Week 52. The TMS scale includes measurement of dystonia.
It is a research tool which has been developed to provide a uniform assessment of the clinical features and course of HD. The TMS component of UHDRS comprises 31 assessments from the 15 items of the UHDRS, with each assessment rated on a 5-point scale from 0 (normal) to 4 (maximally abnormal).
The change from baseline in UHDRS-TMS was analyzed using a Repeated Measures model (SAS® MIXED procedure with REPEATED sub-command). The model includes the following fixed effects: categorical week in study by treatment interaction, center, neuroleptic use or no use, and baseline UHDRS-TMS score. The unstructured covariance matrix for repeated observations within patients was used.

[7] = test system: patients with Huntington's disease; conditions: 45 mg b.i.d, pooled MermaiHD, HART and Pride-HD, BL dystonia ≥4
[8] = test system: human patients afflicted with dystonia; conditions: periodic (daily or twice daily) oral administration
[9] = 45 mg bid, score at week 26, patients who have completed 52 weeks of treatment
[10] = 45 mg bid, score at week 52, patients who have completed 52 weeks of treatment
[11] = 67.5 mg bid, score at week 26, patients who have completed 52 weeks of treatment
[12] = 67.5 mg bid, score at week 52, patients who have completed 52 weeks of treatment
[13] = 90 mg bid, score at week 26, patients who have completed 52 weeks of treatment
[14] = 90 mg bid, score at week 52, patients who have completed 52 weeks of treatment
[15] = 112.5 mg bid, score at week 26, patients who have completed 52 weeks of treatment
[16] = 112.5 mg bid, score at week 52, patients who have completed 52 weeks of treatment

## CCCN1CCC(c2cccc(S(C)(=O)=O)c2)CC1 [pridopidine, 4-[3-(methylsulfonyl)phenyl]-1-propyl-piperidine]
[1]
  expression of the BDNF, dopamine receptor 1 (D1R), glucocorticoid receptor (GR) and Akt/PI3K pathways: activates expression
[2]; BL dystonia score ≥4, completed 52 weeks, FIG. 16a, placebo 60.0%
  Responders, UHDRS TMS dystonia (improved or no change): 77.8%
[2]; BL dystonia score ≥4, completed 52 weeks, FIG. 16b, placebo […]
  Responders, UHDRS TMS dystonia (improved, change≥1): 66.7%
[2]; BL dystonia score ≥4, completed 52 weeks, placebo […]
  Responders, UHDRS-Limb Dystonia item (improved, change≥1): 77.2%
[2]; placebo 66.7%
  Responders, chorea+dystonia items: 77.8%
[3]; 45 mg bid
  Δ to placebo, change from baseline in UHDRS TMS Chorea: 0.92
  Wk 26 Δ to placebo, change from baseline in UHDRS TMS Chorea: −1.4
[3]; 67.5 mg bid
  Δ to placebo, change from baseline in UHDRS TMS Chorea: 0.81
  Wk 26 Δ to placebo, change from baseline in UHDRS TMS Chorea: −2.07
[3]; 90 mg bid
  Δ to placebo, change from baseline in UHDRS TMS Chorea: 0.36
  Wk 26 Δ to placebo, change from baseline in UHDRS TMS Chorea: −2.52
[3]; 112.5 mg bid
  Δ to placebo, change from baseline in UHDRS TMS Chorea: 1.05
  Wk 26 Δ to placebo, change from baseline in UHDRS TMS Chorea: −1.08
[4]; 45 mg bid, Week 26, ALL
  Δ to placebo, change from baseline in UHDRS TMS Finger Taps: −0.3
[4]; 45 mg bid, Week 26, BL TFC≥9, CAG Repeats <44, BL TMS 1st 3 Qs
  Δ to placebo, change from baseline in UHDRS TMS Finger Taps: −0.87
[4]; 45 mg bid, Week 26, BL TFC≥9 and CAG Repeats>44
  Δ to placebo, change from baseline in UHDRS TMS Finger Taps: −0.86
[4]; [9]
  Δ to placebo, change from baseline in UHDRS TMS Finger Tapping+Pronate-Supinate Hands: −0.79
  Δ to placebo, change from baseline in UHDRS TMS Finger Taps: −0.59
[4]; [10]
  Δ to placebo, change from baseline in UHDRS TMS Finger Tapping+Pronate-Supinate Hands: −0.37
  Δ to placebo, change from baseline in UHDRS TMS Finger Taps: −0.31
[4]; 67.5 mg bid, Week 26, ALL
  Δ to placebo, change from baseline in UHDRS TMS Finger Taps: −0.07
[4]; 67.5 mg bid, Week 26, BL TFC≥9, CAG Repeats <44, BL TMS 1st 3 Qs
  Δ to placebo, change from baseline in UHDRS TMS Finger Taps: −0.36
[4]; 67.5 mg bid, Week 26, BL TFC≥9 and CAG Repeats>44
  Δ to placebo, change from baseline in UHDRS TMS Finger Taps: −0.34
[4]; [11]
  Δ to placebo, change from baseline in UHDRS TMS Finger Tapping+Pronate-Supinate Hands: 0.02
  Δ to placebo, change from baseline in UHDRS TMS Finger Taps: −0.13
[4]; [12]
  Δ to placebo, change from baseline in UHDRS TMS Finger Tapping+Pronate-Supinate Hands: 0.68
  Δ to placebo, change from baseline in UHDRS TMS Finger Taps: 0.13
[4]; 90 mg bid, Week 26, ALL
  Δ to placebo, change from baseline in UHDRS TMS Finger Taps: −0.07
[4]; 90 mg bid, Week 26, BL TFC≥9, CAG Repeats <44, BL TMS 1st 3 Qs
  Δ to placebo, change from baseline in UHDRS TMS Finger Taps: −0.54
[4]; 90 mg bid, Week 26, BL TFC≥9 and CAG Repeats>44
  Δ to placebo, change from baseline in UHDRS TMS Finger Taps: −0.52
[4]; [13]
  Δ to placebo, change from baseline in UHDRS TMS Finger Tapping+Pronate-Supinate Hands: 0.02
  Δ to placebo, change from baseline in UHDRS TMS Finger Taps: −0.01
[4]; [14]
  Δ to placebo, change from baseline in UHDRS TMS Finger Tapping+Pronate-Supinate Hands: 0.48
  Δ to placebo, change from baseline in UHDRS TMS Finger Taps: 0.08
[4]; 112.5 mg bid, Week 26, ALL
  Δ to placebo, change from baseline in UHDRS TMS Finger Taps: −0.12
[4]; 112.5 mg bid, Week 26, BL TFC≥9, CAG Repeats <44, BL TMS 1st 3 Qs
  Δ to placebo, change from baseline in UHDRS TMS Finger Taps: −1.05
[4]; 112.5 mg bid, Week 26, BL TFC≥9 and CAG Repeats>44
  Δ to placebo, change from baseline in UHDRS TMS Finger Taps: −1.07
[4]; [15]
  Δ to placebo, change from baseline in UHDRS TMS Finger Tapping+Pronate-Supinate Hands: −0.23
  Δ to placebo, change from baseline in UHDRS TMS Finger Taps: −0.21
[4]; [16]
  Δ to placebo, change from baseline in UHDRS TMS Finger Tapping+Pronate-Supinate Hands: 0.28
  Δ to placebo, change from baseline in UHDRS TMS Finger Taps: 0.1
[5]; 45 mg bid, FAS
  Wk 52 Δ to placebo, change from baseline in Q-Motor: Pro-Sup-Frequency-MN-Hand: 0.0599 Hz
[5]; 45 mg bid, HD1 and HD2 patients
  Wk 52 Δ to placebo, change from baseline in Q-Motor: Pro-Sup-Frequency-MN-Hand: 0.1195 Hz
[5]; 67.5 mg bid, FAS
  Wk 52 Δ to placebo, change from baseline in Q-Motor: Pro-Sup-Frequency-MN-Hand: −0.0124 Hz
[5]; 67.5 mg bid, HD1 and HD2 patients
  Wk 52 Δ to placebo, change from baseline in Q-Motor: Pro-Sup-Frequency-MN-Hand: 0.0548 Hz
[5]; 90 mg bid, FAS
  Wk 52 Δ to placebo, change from baseline in Q-Motor: Pro-Sup-Frequency-MN-Hand: −0.0087 Hz
[5]; 90 mg bid, HD1 and HD2 patients
  Wk 52 Δ to placebo, change from baseline in Q-Motor: Pro-Sup-Frequency-MN-Hand: 0.0575 Hz
[5]; 112.5 mg bid, FAS
  Wk 52 Δ to placebo, change from baseline in Q-Motor: Pro-Sup-Frequency-MN-Hand: 0.0127 Hz
[5]; 112.5 mg bid, HD1 and HD2 patients
  Wk 52 Δ to placebo, change from baseline in Q-Motor: Pro-Sup-Frequency-MN-Hand: 0.08 Hz
[6]; 45 mg bid, HD1 patients, after 52 weeks
  UHDRS-TMS change from baseline over time: improvement in TMS score
[6]; 45 mg bid, Week 26, ALL
  Δ to placebo, change from baseline in UHDRS TMS: 1.42
[6]; 45 mg bid, Week 26, Stage 1 BL TFC 11-13
  Δ to placebo, change from baseline in UHDRS TMS: −4.47
[6]; 45 mg bid, Week 52, ALL
  Δ to placebo, change from baseline in UHDRS TMS: 0.59
[6]; 45 mg bid, Week 52, Stage 1 BL TFC 11-13
  Wk 52 Δ to placebo, change from baseline in UHDRS TMS: −5.32
[6]; 45 mg bid, historical placebo in HART and MermaiHD
  TMS change from baseline vs historical placebo: significant
[6]; 67.5 mg bid, Week 26, ALL
  Δ to placebo, change from baseline in UHDRS TMS: 1.71
[6]; 67.5 mg bid, Week 26, Stage 1 BL TFC 11-13
  Δ to placebo, change from baseline in UHDRS TMS: −3
[6]; 67.5 mg bid, Week 52, ALL
  Δ to placebo, change from baseline in UHDRS TMS: 2.55
[6]; 67.5 mg bid, Week 52, Stage 1 BL TFC 11-13
  Wk 52 Δ to placebo, change from baseline in UHDRS TMS: −0.84
[6]; 90 mg bid, Week 26, ALL
  Δ to placebo, change from baseline in UHDRS TMS: 0.67
[6]; 90 mg bid, Week 26, BL TFC 11-13, read from FIG. 8b
  UHDRS TMS score at week 26 compared to baseline: about −8
[6]; 90 mg bid, Week 26, Stage 1 BL TFC 11-13
  Δ to placebo, change from baseline in UHDRS TMS: −6.15
[6]; 90 mg bid, Week 52, ALL
  Δ to placebo, change from baseline in UHDRS TMS: 1.78
[6]; 90 mg bid, Week 52, Stage 1 BL TFC 11-13
  Wk 52 Δ to placebo, change from baseline in UHDRS TMS: −7.1
[6]; 90 mg bid, compared with other doses
  Total Motor Score (TMS) change from baseline, treatment effect: largest treatment effect
[6]; 90 mg bid, historical placebo in HART and MermaiHD
  TMS change from baseline vs historical placebo: significant
[6]; 90 mg bid, week 26, historical placebo in HART and MermaiHD
  Total Motor Score (TMS) change from baseline, difference vs historical placebo: ~6.5 TMS point
[6]; 112.5 mg bid, Week 26, ALL
  Δ to placebo, change from baseline in UHDRS TMS: 2.1
[6]; 112.5 mg bid, Week 26, Stage 1 BL TFC 11-13
  Δ to placebo, change from baseline in UHDRS TMS: −4.79
[6]; 112.5 mg bid, Week 52, ALL
  Δ to placebo, change from baseline in UHDRS TMS: 2.71
[6]; 112.5 mg bid, Week 52, Stage 1 BL TFC 11-13
  Wk 52 Δ to placebo, change from baseline in UHDRS TMS: −0.92
[7]; Week 26
  UHDRS Dystonia score compared to placebo: statistically significant improvement
[7]; Week 52
  UHDRS Dystonia score compared to placebo: trend toward this improvement was maintained
[8]
  dystonia in afflicted patients: effective to reduce dystonia
